Tests used:
[1] = system: dopaminergic neurons (TH+) of rat mesencephalon cultures; assay: tritiated dopamine reuptake per TH+ dopaminergic neuron in mesencephalon cultures; format: cell-based; conditions: D14; memantine 10 μM; 75% Xe or 75% N2; p<0.05, n=9
Procedure: Cultures are prepared from mesencephalon of rat embryos, taking from female Wistar rats, on day 15.5 of gestation.
The process for obtaining the mesencephalon cultures comprises the obtaining of a homogeneous cell suspension by mechanical dissociation, that is to say non-enzymatic dissociation, of the embryonic tissue, using Leibovitz's L15 medium (Sigma Aldrich).
Aliquots of this suspension are added to 48-well Nunc plates, which have been precoated with a thin layer of polyethyleneimine (1 mg/ml, borate buffer, pH 8.3) so as to allow the adhesion of neuronal cells (Toulorge et al., Faseb J, 2011).
The seeding density is between approximately 80 000 and 100 000 cells/cm^2.
The mesencephalon cultures are maintained in Minimum Essential culture Medium (MEM), containing 1 g/l of glucose, 2 mM of L-glutamine, 1 mM of sodium pyruvate, non-essential amino acids and a penicillin/streptomycin cocktail. For the first week of culture, this medium is supplemented with 10% of fetal calf serum and 10% of horse serum. Starting from the second week, the serum concentrations are reduced to 2% (Gao et al., J Neurosci, 2002).
Up until the moment when the effects of the gases of interest are evaluated, the cultures are placed in a conventional enclosure thermostated at 37° C., in which the CO2 is maintained at 5% by volume and wherein the atmosphere is saturated with water. […]

[2] = system: dopaminergic neurons (TH+) of rat mesencephalon cultures; assay: neurite length per TH+ dopaminergic neuron in mesencephalon cultures; format: cell-based; conditions: D14; memantine 10 μM; 75% Xe or 75% N2; p<0.05, n=9
Procedure: Cultures are prepared from mesencephalon of rat embryos, taking from female Wistar rats, on day 15.5 of gestation. The process for obtaining the mesencephalon cultures comprises the obtaining of a homogeneous cell suspension by mechanical dissociation, that is to say non-enzymatic dissociation, of the embryonic tissue, using Leibovitz's L15 medium (Sigma Aldrich). Aliquots of this suspension are added to 48-well Nunc plates, which have been precoated with a thin layer of polyethyleneimine (1 mg/ml, borate buffer, pH 8.3) so as to allow the adhesion of neuronal cells (Toulorge et al., Faseb J, 2011). The seeding density is between approximately 80 000 and 100 000 cells/cm^2. The mesencephalon cultures are maintained in Minimum Essential culture Medium (MEM), containing 1 g/l of glucose, 2 mM of L-glutamine, 1 mM of sodium pyruvate, non-essential amino acids and a penicillin/streptomycin cocktail. For the first week of culture, this medium is supplemented with 10% of fetal calf serum and 10% of horse serum. […] Up until the moment when the effects of the gases of interest are evaluated, the cultures are placed in a conventional enclosure thermostated at 37° C., in which the CO2 is maintained at 5% by volume and wherein the atmosphere is saturated with water. […] This parameter is evaluated with the same HCS Studio software.

CC12CC3CC(C)(C1)CC(N)(C3)C2 [Memantine, memantine]
dopamine reuptake per TH^+ neuron, effect compared with control cultures under 75% nitrogen (FIG. 1) [1]: significantly greater | neurite length per TH^+ neuron, effect compared with control cultures under 75% nitrogen (FIG. 2) [2]: significantly greater

[Xe] [Xenon, xenon]
dopamine reuptake per TH^+ neuron, effect compared with control cultures under 75% nitrogen (FIG. 1) [1]: significantly greater | neurite length per TH^+ neuron, effect compared with control cultures under 75% nitrogen (FIG. 2) [2]: significantly greater

Source: patent publication US20170246204A1, “MEDICAMENT FOR TREATING A DISEASE RELATING TO A DYSFUNCTION OF THE DOPAMINERGIC SYNAPTIC TRANSMISSION” (L'Air Liquide, Société Anonyme pour l'Etude et …, priority 2014, published 2017)
